Data reported in patent publication US20060258754A1, “Method of treating endothelial dysfunction, oxidative stress and related diseases” (priority 2004, published 2006).
Entries after “also recorded” stand apart in the source; their conditions may differ.

Experiments:
[1] = test system: ROS generated by xanthine/xanthine oxidase; experiment: Superoxide assay in vitro: xanthine/xanthine oxidase, NBT reduction; assay type: biochemical; settings: low micromolar concentrations, FIG. 10
Description: Superoxide radicals were generated by the reaction of xanthine (1 mM) and xanthine oxidase ([…]) in air-saturated potassium phosphate buffer (pH 7.8 at 25° C.). Superoxide anions were detected by nitroblue tetrazolium (NBT—50 μM) which undergoes reduction by O2-. to its formazan. The rate of reduction was monitored spectrophotometrically at 560 nm with an Ultrospec 1000 (Pharmacia Biotech, Cambridge, England). SOD-1, by scavanging O2-. Diminishes the rate of reduction of NBT. The volume was fixed at 2 mL. Each experiment was run in duplicate.

aortic rings [2] = experiment: Rat aortic thoracic rings: acetylcholine relaxation after phenylephrine contraction, 4-week oral treatment; assay type: in vivo, alloxan-diabetic male Wistar rats; settings: for endothelial dysfunction overall: 4-week oral administration versus saline treated alloxan diabetic rats; for effect on macrovascular endothelial dysfunction at highest acetyl choline concentrations: FIG. 2, FIG. 3; for effect on macrovascular endothelial dysfunction at intermediate acetylcholine concentration: acetylcholine 10^-7 M
Description: Male Wistar rats, weighing between 230-250 g, fed regular chow, with free access to water were separated in four groups (n=10/each). The first two groups, termed normoglycemic, were treated with saline (0.1 mL/100 g/12 h) by the oral route (intragastric gavage) or untreated for four weeks. The second two groups, hyperglycemic, were treated with saline (0.1 mL/100 g/12 h) or treated with D-chiro-inositol (20 mg/kg/12 h) under the same protocol. […] Diabetes was induced by a single intravenous injection of 45 mg/kg alloxan as described by Sannomiya et al., 1997 ( ). Diabetes was diagnosed 96 h after injection by blood glucose assay >200 mg/dL. All protocols were approved by the local committee and follow the Guide for the Care and Use of Laboratory Animals published by the US National Institutes of Health (NIH Publication No. 85-23, revised 1996). After completion of blood pressure measurements and vascular mesenteric bed collection, animals were sacrificed by exsanguination while under anesthesia. The thoracic aorta was excised and rapidly cleansed of connective tissue in Petri dishes containing warmed and gassed (95% O2 in 5% CO2) Krebs-Henseleit solution (KHS). The aorta segment was cut in small rings (≈5 mm) and mounted horizontally in 5 mL chambers for isometric recording of tension. The resting tension was adjusted to 1 g and the tissue allowed to equilibrate for 1 hour with a 15 min washout period. Tissues were kept in KHS at 37° C., gassed with the O2, CO2 mixture and isometric recordings made with a force displacement transducer connected to a four-channel polygraph (Narco Biosystems, Houston, Tex., USA). After the equilibration period, tissues were contracted with a submaximal concentration of phenylephrine (≈60% maximal response) until two similar responses were obtained in order to ensure reproducibility of the contraction curves. […] The acetylcholine dose response curve was repeated after a 60 min washout interval. All experiments were performed in the presence of indomethecin (10 μM) and guanethidine (10 μM) to prevent the production of vasoactive prostanoids. At least 6 separate experiments will be performed each in duplicate.

diabetic RbCC = experiment: Relaxant response of diabetic RbCC to NO and Ach after in vitro inositol addition; settings: in vitro inositol addition (one hour)
Description: NO action was investigated in aortic rings and RbCC. […] The data in FIGS. 14 are expressed as mean±SEM of 5 experimental units. * p<0.05, ANOVA followed by Tukey-Kramer, diab (C) vs. Inositol treated. # p<0.05, ANOVA followed by Tukey-Kramer, Eugly vs. Inositol treated. In FIG. 14, Veh=vehicle; C=diabetic control; Diab=diabetic control; Eugly=euglycemic tissue. Relaxation was restored toward or to normal by incubation with inositols.

aortic rings [3] = experiment: Acute incubation of diabetic rabbit aortic rings: acetylcholine relaxation; design: species or system alloxan-diabetic rabbits; settings: acute incubation 1 μM, medium and higher concentrations of acetyl choline, FIG. 7
Description: Male California rabbits, weighing 2-2.5 kg, were provided by the vivarium of the Biomedicine Institute-UFC. Diabetes was induced by intraperitoneal injection of alloxan (150 mg/kg) and only animals with plasma glucose concentration above 200 mg/dl were included in the study. Age-matched euglycemic rabbits were used as controls.
Kidneys and aortic rings are harvested from diabetic rabbits after 3 weeks of alloxan injection. They are perfused with KHS containing 1 μM D-chiro-inositol, pinitol, dibutyryl D-chiro-inositol, myo-inositol or saline for 1 hour. Dose response curves for acetylcholine are then performed following prior phenylephrine vasoconstriction as described. At least 6 separate experiments will be performed each in duplicate.
Kidneys and aortic rings were harvested from diabetic rabbits after 3 weeks of alloxan injection. The animals were sacrificed under sodium pentobarbital anesthesia (Hypnol®, 150-200 mg/kg). […]. Rabbit kidneys were obtained from male New Zealand rabbits (1-1.5 kg) after cannulation of the renal artery in situ. […] The alterations in perfusion pressure are continuously recorded in a four-channel polygraph (Narco Biosystems, Houston, Tex., USA) by means of a pressure transducer (P23 Gould Stratham, Oxnard, Calif., USA). […]

[4] = chronic oral administration, FIG. 3
[5] = listed as dibutyryl D-chiro-inositol

reduction of ROS generated by xanthine/xanthine oxidase ([1]; listed as D-chiro-inositol)	Compound	reduction of ROS generated by xanthine/xanthine oxidase [1]	endothelial dysfunction overall (aortic rings [2])	endothelial dysfunction overall (aortic rings [2]; listed as D-chiro-inositol)	relaxant response induced by acetylcholine, reversal of the pre-contractile state (aortic rings [2]; D-chiro-inositol 20 mg/kg/12 h by gavage four weeks, lower acetylcholine concentrations, saline diabetic 57.4±4.5%)	effect on macrovascular endothelial dysfunction at highest acetyl choline concentrations (aortic rings [2]; chronic oral administration)	effect on macrovascular endothelial dysfunction at intermediate acetylcholine concentration (aortic rings [2]; [4])	effect on macrovascular endothelial dysfunction at intermediate acetylcholine concentration (aortic rings [2]; chronic oral administration, FIG. 3, listed as D-chiro-inositol)	relaxant response to graded concentrations of NO and to Ach (diabetic RbCC)	restoring vasorelaxant effect in aortic rings (aortic rings [3])	restoring vasorelaxant effect in aortic rings (aortic rings [3]; [5])	reduction of ROS generated by xanthine/xanthine oxidase [1, 5]	effect on macrovascular endothelial dysfunction at lowest acetyl choline concentrations (aortic rings [2]; [4])
equally effective	OC1C(O)C(O)C(O)C(O)C1O [DCI, D-chiro-inositol]	reduced ROS in a low micromolar concentration dependant manner	effective in improving endothelial dysfunction	prevented the endothelial dysfunction	100%	partially restored to normal; also recorded: the most effective	followed by DCI, pinitol and myoinositol in descending order of effect	active at intermediate acetyl choline concentrations					
	CCCC(=O)O[C@@H]1[C@@H](O)[C@@H](O)[C@H](O)[C@H](O)[C@H]1OC(=O)CCC [dbDCI, 3,4-dibutyryl-D-chiroinositol]	reduced ROS in a low micromolar concentration dependant manner; also recorded: statistically more effective than the other 3 inositols				the most effective	greatest effect		more effective than the other three inositols	more effective than myoinositol	clearly more effective than myo-inositol	statistically more effective than the other 3 inositols	most effective at the lowest acetyl choline concentrations
